The text below walks through data of patent publication US6605742B2, “Cyclo azaphospha hydrocarbons” (priority 2001, dated 2003).

What all share (format): biochemical
For one test, the target named is T1, MMP-1 (Homo sapiens, UniProt P03956).
T1 construct: purchased Chemicon International, CA, USA
T1 sequence (P03956 100-469): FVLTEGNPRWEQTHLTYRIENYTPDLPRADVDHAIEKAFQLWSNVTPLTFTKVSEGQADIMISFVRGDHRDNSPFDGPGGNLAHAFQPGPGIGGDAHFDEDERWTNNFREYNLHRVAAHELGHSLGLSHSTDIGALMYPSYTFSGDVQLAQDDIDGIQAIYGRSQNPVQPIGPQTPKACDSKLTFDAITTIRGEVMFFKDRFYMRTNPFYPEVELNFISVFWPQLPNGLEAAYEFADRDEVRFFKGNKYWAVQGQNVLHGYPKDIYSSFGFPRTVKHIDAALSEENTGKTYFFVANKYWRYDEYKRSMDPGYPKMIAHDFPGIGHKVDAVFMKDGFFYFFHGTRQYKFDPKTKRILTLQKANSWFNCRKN
The test is described as follows: Test for MMP inhibitory effects: cleavage of fluorogenic substrate M-2055 by MMP-1. The protocol:
(§1) The assay measures the effect of the tested compounds on the proteolytic activity of metalloproteases by assessing the cleavage of a fluorogenic substrate. In the uncleaved substrate the fluoresensce is quenched intramolecularly, however, cleavage of the substrate relieves the quenching yielding fluorescent peptides [Bickett, Anal. Biochem, 212, 58-64, 1993; Knight, FEBS Lett., 296, 263-266, 1992].
(§2) The compounds were tested for inhibitory effects towards MMP-1 and MMP-9 (Chemicon International, CA, USA) and MMP-2 (Biogenesis Ltd, UK). Substrate for MMP-1 was M-2055 (Dnp-Pro-β-cyclohexyl-Ala-Gly-Cys(Me)-His-Ala-Lys(N-Me-Abz)-NH2), which is a synthetic peptide-like structure, obtained from Bachem AG, Schwitzerland. Substrate for MMP-2 and MMP-9 was fluorescein-conjugated gelatin obtained from Molecular Probes Inc., OR, USA.
(§3) The enzymes were activated with phenyl mercuric acetate, and incubated with the appropriate substrate and different levels of the compound to be tested. The exitation/emission wavelengths were 350/450 and 485/530 for M-2055 and gelatine, respectively.
(§4) The molar concentration of the test compounds resulting in 50% inhibition of the enzymatic activity (IC50) was calculated from the dose-response curve. For convenience, the results are reported as pIC50, i.e. −log(IC50).

In the next test the target is T2, MMP-2 (Homo sapiens, UniProt P08253).
T2 construct: purchased Biogenesis Ltd, UK
T2 sequence (P08253 110-660): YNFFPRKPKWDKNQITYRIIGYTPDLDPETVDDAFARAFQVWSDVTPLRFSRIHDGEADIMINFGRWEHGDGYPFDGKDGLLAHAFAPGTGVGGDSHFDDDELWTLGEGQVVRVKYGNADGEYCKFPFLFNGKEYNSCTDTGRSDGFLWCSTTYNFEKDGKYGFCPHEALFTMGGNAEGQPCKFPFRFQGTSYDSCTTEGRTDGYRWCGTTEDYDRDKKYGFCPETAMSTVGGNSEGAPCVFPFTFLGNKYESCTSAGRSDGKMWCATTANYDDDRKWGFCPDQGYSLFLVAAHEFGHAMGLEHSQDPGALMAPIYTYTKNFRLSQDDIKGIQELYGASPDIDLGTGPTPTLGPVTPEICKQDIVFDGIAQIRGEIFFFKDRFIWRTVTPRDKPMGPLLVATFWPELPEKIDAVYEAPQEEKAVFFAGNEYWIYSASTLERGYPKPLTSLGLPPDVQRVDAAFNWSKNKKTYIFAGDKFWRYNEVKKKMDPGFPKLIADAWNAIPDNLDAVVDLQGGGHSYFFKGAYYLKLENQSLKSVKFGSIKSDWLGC
The experiment in a line: Test for MMP inhibitory effects: cleavage of fluorescein-conjugated gelatin by MMP-2. The protocol: as §1, §2, §3, §4

The target in a further test is T3, MMP-9 (Homo sapiens, UniProt P14780).
T3 construct: purchased Chemicon International, CA, USA
The experiment in a line: Test for MMP inhibitory effects: cleavage of fluorescein-conjugated gelatin by MMP-9. The protocol: as §1, §2, §3, §4

[1] abbreviates: pIC50 = -log(IC50), molar, enzyme activated with phenyl mercuric acetate, substrate fluorescein-conjugated gelatin, excitation/emission 485/530.

A word on the IC50: it is the midpoint of a concentration-inhibition curve. A lower IC50 goes with greater potency.

T3 sequence (P14780 107-707 limits assumed, species assumed): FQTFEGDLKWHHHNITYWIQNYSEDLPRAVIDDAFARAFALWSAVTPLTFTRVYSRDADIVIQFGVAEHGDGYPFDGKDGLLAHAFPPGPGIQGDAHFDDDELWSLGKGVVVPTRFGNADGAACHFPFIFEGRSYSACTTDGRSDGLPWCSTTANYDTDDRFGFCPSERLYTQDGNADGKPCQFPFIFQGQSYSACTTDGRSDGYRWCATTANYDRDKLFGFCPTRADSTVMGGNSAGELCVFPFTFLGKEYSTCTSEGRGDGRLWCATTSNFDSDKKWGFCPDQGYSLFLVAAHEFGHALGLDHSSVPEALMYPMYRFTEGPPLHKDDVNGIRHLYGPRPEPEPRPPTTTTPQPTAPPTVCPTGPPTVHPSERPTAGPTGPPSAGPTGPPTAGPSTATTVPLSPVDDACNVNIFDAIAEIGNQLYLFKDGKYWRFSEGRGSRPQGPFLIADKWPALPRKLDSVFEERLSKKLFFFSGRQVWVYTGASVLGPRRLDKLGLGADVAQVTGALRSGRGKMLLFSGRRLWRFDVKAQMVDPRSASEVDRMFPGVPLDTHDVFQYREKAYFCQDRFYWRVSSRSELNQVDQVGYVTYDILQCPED

As to `O=C(CN1CC=CCP1(=O)c1ccc(Oc2ccccc2)cc1)NO` (racemic) [Example 1, (±)-N-hydroxy-2-oxo-2-(4-phenoxyphenyl)-azaphosphorin-4-ene-1-acetamide], the IC50 against MMP-1 is 2510 nM; on MMP-2, 5.01 nM; at MMP-9, 1 nM.
As to `O=C(CN1CC=CCCP1(=O)c1ccc(Oc2ccccc2)cc1)NO` (racemic) [Example 4, (±)-N-hydroxy-2-oxo-2-(4-phenoxyphenyl)-azaphosphorep-5-ene-1-acetamide], the IC50 against MMP-1 is 7940 nM; against MMP-2 it was 7.94 nM; on MMP-9, 6.31 nM.
Regarding `O=C(CN1CCCCCP1(=O)c1ccc(Oc2ccccc2)cc1)NO` (racemic) [Example 5, (±)-N-hydroxy-2-oxo-2-(4-phenoxyphenyl)-azaphosphorepane-1-acetamide], the “pIC50 MMP-1” value on MMP-1 (pIC50 = -log(IC50), molar, enzyme activated with phenyl mercuric acetate, substrate M-2055, excitation/emission 350/450) stood at 5.2. Moreover, the “pIC50 MMP-2” value on MMP-2 (setting [1]) was found to be 8.3. The “pIC50 MMP-9” value on MMP-9 (setting [1]) is given as 8.5.
As for `O=C(CN1CC=CCP1(=O)c1ccc(Oc2ccc(Cl)cc2)cc1)NO` (racemic) [Example 6, (±)-N-hydroxy-2-(4-(4-chlorophenoxy)-phenyl-2-oxo-azaphosphorin-4-ene-1-acetamide], the values for the IC50 on MMP-1, against MMP-2 and against MMP-9 were 5010 nM, 3.98 nM and 0.794 nM, respectively.
